The record followed here is patent publication US10329259B2, “Pyrazole derivatives and their use as cannabinoid receptor mediators” (The United States of America, as represented by the …, priority 2014, dated 2019).

The assay addresses T1, mouse CB1 receptor (Mus musculus, UniProt P47746).
T1 construct: radioligand displacement assay using mouse brain plasma membranes; from tissue; host or cells: mouse brain plasma membranes
Briefly: radioligand displacement assay using mouse brain plasma membranes and 3H-CP55540. Type of assay: binding. The text has this:
In addition, the compounds disclosed herein may be less lipophilic.
On the technique in general: Displacement assays read how much labelled ligand stays bound in the presence of the test substance.

Like-named read-outs stand apart in the source and are kept apart here.

T1 sequence (P47746 whole entry): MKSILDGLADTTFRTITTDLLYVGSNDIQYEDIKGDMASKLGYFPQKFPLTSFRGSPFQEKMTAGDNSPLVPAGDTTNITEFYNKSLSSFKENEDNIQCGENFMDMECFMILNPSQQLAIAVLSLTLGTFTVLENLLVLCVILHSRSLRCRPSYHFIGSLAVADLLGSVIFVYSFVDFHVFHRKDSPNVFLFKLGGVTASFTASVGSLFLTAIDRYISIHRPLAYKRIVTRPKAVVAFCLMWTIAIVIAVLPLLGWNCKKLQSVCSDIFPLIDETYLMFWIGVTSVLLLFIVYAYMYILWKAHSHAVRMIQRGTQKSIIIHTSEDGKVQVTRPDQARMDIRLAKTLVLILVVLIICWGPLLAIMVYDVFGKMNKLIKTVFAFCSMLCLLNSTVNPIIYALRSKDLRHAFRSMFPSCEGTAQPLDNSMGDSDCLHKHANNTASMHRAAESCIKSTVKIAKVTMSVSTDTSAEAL

On to `C/C(N)=N/C(=N/S(=O)(=O)N1CCC(C(F)(F)F)CC1)N1CC(c2ccccc2)C(c2ccc(Cl)cc2)=N1` (stereo not drawn) [Table 1 Serial # 13], for which affinity was put at a Ki of 3 nM.

On to `CC(=O)NC(=N)NC(=NS(=O)(=O)N1CCC(F)(F)CC1)N1CC(c2ccccc2)C(c2ccc(Cl)cc2)=N1` (stereo not drawn) [MRI-1950], for which, for the setting “mouse brain plasma membranes, 3H-CP55540 as labeled ligand, read-out: Ki CB1”, the Ki (usually the equilibrium dissociation constant of an inhibitor or competing ligand from its target) was 1.2 nM.

As for `CC(C)(C)/C(N)=N/C(=N/S(=O)(=O)N1CCC(F)(F)CC1)N1CC(c2ccccc2)C(c2ccc(Cl)cc2)=N1` (stereo not drawn) [Table 1 Serial # 10], the Ki came out at 21 nM.
